Series [1] deals with CAA (cerebrovascular Aβ deposits) (Homo sapiens, UniProt P05067). The experiment in a line: In situ binding assay in fixed brain tissue, CAA. Details: species or system Tg2576 mice. The source says:
(§1) Tg2576 mice are a well characterized mouse model of AD and CAA. They develop congophilic Aβ aggregates within neuritic plaques and leptomeningeal and cortical penetrating arteries at 11 months of age (Hsiao et al., 1996; Kawarabayashi et al., 2001; Fryer et al., 2005; Han et al., 2008).
(§2) The Ki values for CAA vs. neuritic plaques will be calculated utilizing the fluorescent amyloid-ligand methoxy-X34 and fluorescent microscopic method. […] Tissue sections (3 sections per reaction) will be then mounted and coverslipped. Photographs of methoxy-X34 binding images will be taken using a Nikon fluorescent microscope. The fluorescent intensity on cerebral amyloid deposits and neuritic plaques will be separately quantified using Image J software. Finally, Ki values will be calculated by plotting % bound vs. log concentrations of competitors followed by non-linear regression using the Graph Pad Prism software. The maximum binding will be obtained from the methoxy-X34 intensity in the absence of competitors, while non-specific binding will be detected by the fluorescent intensity in brain tissues incubated without methoxy-X34.
In situ binding assay: Tg2576 mice or littermate controls at 15 months of age will be perfused with phosphatebuffered saline (PBS) for 5 min. Brains will be removed, fixed in 4% paraformaldehyde, and preserved in 30% glucose-PBS solution at 4° C. Brains will be coronally sectioned using a microtome and kept in cryoprotectant solution at −20° C. To label amyloid deposits, brain sections (3 sections per reaction) will be permeabilized with PBS containing 0.25% Triton X-100 for 20 min at room temperature, followed by incubation with 1 μM methoxy-X34 in the presence or absence of competitors at various concentrations (10-9-10-6 M). Sections will be subjected to fluorescent microscopy using a Nikon Eclipse C600 microscope. The fluorescent intensity of methoxy-X34 in vessels and neuritic plaques will be quantified using the ImageJ software. The binding affinity (Ki) will be calculated using the Graph Pad Prism software.

Series [2] is classed as physicochemical. The procedure: Hydrophobicity affects drug absorption, bioavailability, hydrophobic drug-receptor interactions, metabolism of molecules, and their toxicity. […] The mixture will be incubated with agitation for 30 min until ionic and non-ionic forms of test compound reach equilibrium. Two layers will be separated by centrifugation. Test compound's concentrations in octanol and water layers will be determined by UV/VIS spectrophotometry. The log Poct value will be calculated from log (concentration in n-octanol fraction/concentration in water fraction). Experiments will be repeated at least 3 times with triplicated samples.

The target in series [3] is CAA (Homo sapiens, UniProt P05067). The experiment in a line: Binding affinities for CAA performed on isolated vessels determined by fluorescent binding. Particulars: for Ki: read-out: Binding affinity Ki; for Kd: read-out: Binding affinity KD. The method, then: The isolation of cerebral vessels for biochemical analysis will be performed as described (78, 98). […] After the cerebellum is removed, the brain will be homogenized in fivefold excess of vessel buffer. An equal volume of 26% dextran will be added, and the tissue will be centrifuged at 6200×g for 30 min at 4° C. The resulting vessels form a pellet, whereas the parenchymal “vessel-free” material forms a solid, compact disc at the top of the solution. The […] will be resuspended in vessel buffer and passed over a 40-μm nylon mesh to capture vessels. Vessel and parenchymal material will be lysed in 5 M guanidine, 50 mM Tris, pH 8, with protease inhibitor cocktail (Roche) for 3 hr.

Series [4] deals with cerebrovascular Aβ deposits. The experiment in a line: In vivo live imaging of CAA amyloid deposits through closed cranial window. Particulars: topical application through cranial window, resorufin 2 μM, 16-month-old Tg2576 mice. The method, then:
FIG. 4 depicts in vivo live imaging of CAA amyloid deposits through closed cranial window. A,B. Closed cranial window was prepared on the right parietal bone of 16-month-old Tg2576 mice. Leptomeningeal arterioles (B) were subjected to live imaging using a fluorescent microscope. […] Scale bars: in C-E: 250 μm, in E: 100 μm.

For series [5], the system named is Aβ deposits in cerebral vessels. The experiment in a line: Multi-photon microscopy of whole brains stained with resorufin and phalloidin. Particulars: 16-month-old Tg2576 mice.
The subject of series [6] is CAA vs. neuritic plaques. The experiment in a line: Co-staining of fixed brain sections of Tg2576 mice with fluorescent amyloid dyes. As to conditions: aged (16-month-old) Tg2576 mice. Type of series: binding.
Source text: as §1

Series [7] deals with CAA vs. neuritic plaques. The experiment in a line: Staining of paraffin-embedded cortical brain sections of a human AD patient (3D6 and resorufin). Type of series: binding. As to conditions: 3D6 co-labeling.
Source text: as §1

Series [8] relates to neuritic plaques. Kind of series: In situ binding assay in fixed brain tissue, neuritic plaques. As to conditions: in situ binding assay at a concentration of 160 μM. Details: species or system Tg2576 mice.
Source text: as §1, §2
In situ binding assay: Tg2576 mice or littermate controls at 15 months of age will be perfused with phosphatebuffered saline (PBS) for 5 min. […] The fluorescent intensity of methoxy-X34 in vessels and neuritic plaques will be quantified using the ImageJ software. […]

The conditions of series [9]: normal mice, cited from earlier work.
For series [10] the following is noted: literature value; cited from earlier work.
The conditions of series [11]: normal rats; cited from earlier work.

“Also recorded” adds a separate entry of the source. Like-named read-outs stand apart in the source and are kept apart here.

Usually Ki stands for a measure of affinity in units of concentration, obtained from inhibition or displacement. The Kd is a measure of binding affinity in units of concentration.

On to `CCOc1ccc2nc3ccc(=O)cc-3oc2c1` [Ethoxy-resorufin, 7-ethoxyresorufin], for which the “selective binding affinity for CAA deposits” value in [1] is given as “low nanomolar range”. In addition, the Ki in [1] (preliminary studies, read-out: binding affinity (Ki) for cerebrovascular Aβ deposits) amounted to 247 nM. For the same compound, the lipophilicity result in series [2] is listed as “moderate lipophilicity”. For the compound `COc1ccc2nc3ccc(=O)cc-3oc2c1` [Methoxy-resorufin], the Ki in [3] was determined as 4680 nM.

With `O=c1ccc2nc3ccc(O)cc3oc-2c1` [Resorufin, resorufin], the results for the “fluorescent labeling of amyloid deposits in live mice” value in [4] and in [4] (listed as resorufin) were “selectively labeled amyloid deposits in arterioles” and “marked fluorescent labeling within the walls of leptomeningeal arteries (but not in neuritic plaques); also recorded: visualized cerebrovascular Aβ deposits”, respectively. Moreover, in series [5], the “intensity of resorufin staining by vessel type” value was “greater in pial arterioles than in penetrating arterioles or capillaries”. Further, the figures for the “staining of CAA vs. neuritic plaques” value in series [6] and in [6] (listed as resorufin) were “CAA>>>neuritic plaques” and “selectively bound fibrillar amyloid-laden arterioles”, respectively. Further, in series [7], the “staining of arterioles vs. neuritic plaques in human AD brain” value is “selectively labeled 3D6-immunoreactive amyloid deposits in arterioles but less likely neuritic plaques; also recorded: prominent in 3D6-positive cerebral arterioles but was rarely seen in 3D6-positive neuritic plaques”. Also, the “binding to neuritic plaques” value in series [8] is “negligible”. In series [2] (30 min), the “log Poct” value is listed as 0.427.

Take `C#COc1ccc2nc3ccc(=O)cc-3oc2c1` [WC-5-1]: in series [3], the Kd was found to be 828 nM and the Ki came to 4610 nM. On to `O=c1ccc2nc3ccc(OCCF)cc3oc-2c1` [WC-5-2], for which the Kd in [3] stood at 800 nM. The same measure, in the same setting: in the case of `O=c1ccc2nc3ccc(OCc4cn(CCF)nn4)cc3oc-2c1` [WC-5-3] it was 2380 nM.

Consider `COc1cccc(COc2ccc3nc4ccc(=O)cc-4oc3c2)c1` [WC-5-4], for which the Kd in series [3] came to 537 nM. As for `COc1ccc(COc2ccc3nc4ccc(=O)cc-4oc3c2)cc1` [WC-5-5], the Ki in series [3] was 218 nM. For `CC(=O)OCCOc1ccc2nc3ccc(=O)cc-3oc2c1` [WC-5-8], the Ki in series [3] stood at 860 nM. Take `O=c1ccc2nc3ccc(OCCBr)cc3oc-2c1` [WC-5-9]: the Kd in [3] stood at 927 nM. The same measure, in the same setting: in the case of `O=c1ccc2nc3ccc(OCc4ccc(I)cc4)cc3oc-2c1` [WC-5-31] it was above 10000 nM. On to `COCCOc1ccc2nc3ccc(=O)cc-3oc2c1` [WC-5-42], for which the Ki in series [3] is 347 nM.

For the compound `COCCOCCOc1ccc2nc3ccc(=O)cc-3oc2c1` [WC-5-43], in series [3], the Ki was determined as 407 nM. Same read-out and setting: in the case of `COc1ccc(OCCOc2ccc3nc4ccc(=O)cc-4oc3c2)cc1` [WC-5-45] it was 421 nM.

Turning to `COc1ccc(OCCOCCOc2ccc3nc4ccc(=O)cc-4oc3c2)cc1` [WC-5-47], the Ki in series [3] was above 10000 nM. Consider `[11CH3]Nc1ccc(-c2nc3ccc(O)cc3s2)cc1` [[^11C]PIB], for which the brain level in series [9] (2 min after injection) is 3.2 % ID/g; in series [9] (60 min) it was 0.21 % ID/g. For the same compound, the “fraction in the brain cleared” value in [9] (within 60 min) was 93%. Take `COc1cc(/C=C/c2ccc(O)cc2)ccc1/C=C/c1ccc(O)cc1` [methoxy-X04, reference compound]: the “fluorescent labeling of amyloid deposits in live mice” value in [4] is “staining was noted in both arterioles and senile plaques; also recorded: present in both cerebral arteries and parenchymal neuritic plaques”. In series [10], the “log Poct” value is given as 2.6. In addition, in [11], the “brain clearance estimated half life (t½)” value is on record as around 45 min. `COc1cc(C=Cc2ccc(O)c(C(=O)O)c2)ccc1C=Cc1ccc(O)c(C(=O)O)c1` [methoxy-X34, reference compound]: the “affinity for CAA vs. neuritic plaques” value in series [1] (in situ binding assay) was “almost an equal affinity for both CAA and neuritic plaques”. For the same compound, the “staining of CAA vs. neuritic plaques” value in series [6] is “labeled amyloid deposited in both CAA and neuritic plaques; also recorded: visualized both CAA and neuritic plaques”. For the compound methoxyphenyl-resorufin, the “selective binding affinity for CAA deposits” value in series [1] was “low nanomolar range”. The lipophilicity entry in series [2] was “moderate lipophilicity”. Taken in the same sequence, the figures for phenyl-resorufin were “low nanomolar range” and “moderate lipophilicity”.

The values are drawn from patent publication US9216974B2, “Phenoxazine derivatives and methods of use thereof” (Washington University, priority 2010, dated 2015).
